Measurements from US9458181B2, “Cathepsin cysteine protease inhibitors” (Merck Sharp & Dohme Corp., priority 2013, dated 2016).

What was measured:
human cathepsin F = molecular target: T1, human cathepsin F (Homo sapiens, UniProt Q9UBX1); assay: Cathepsin F assay (hCat F); format: biochemical; details: human cathepsin F 10 nM, Z-Phe-Arg-AMC 8 μM, pH 5.5, 15 min preincubation; read-out: hCat F IP
T1 sequence (Q9UBX1 271-484): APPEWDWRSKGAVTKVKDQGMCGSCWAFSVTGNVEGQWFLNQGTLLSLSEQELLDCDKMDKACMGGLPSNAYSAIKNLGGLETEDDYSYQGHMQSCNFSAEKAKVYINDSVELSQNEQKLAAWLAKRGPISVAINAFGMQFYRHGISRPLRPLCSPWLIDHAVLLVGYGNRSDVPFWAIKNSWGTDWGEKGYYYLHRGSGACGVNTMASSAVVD
Procedure: Cathepsin F assay (hCat F)
(§1) Serial dilutions (⅓) from 500 μM down to 0.025 μM of test compounds were prepared in dimethyl sulfoxide (DMSO). Then 0.5 μL of DMSO from each dilution were added to 18.75 μL of assay buffer (MES, 50 mM (pH 5.5); EDTA, 2.5 mM; DTT, 2.5 mM and 10% DMSO) containing human cathepsin F (10 nM) in assay buffer solution. The assay solutions were mixed for 5-10 seconds on a shaker plate and incubated for 15 minutes at room temperature. Z-Phe-Arg-AMC (8 μM) in 6.25 μL of assay buffer was added to the assay solutions. Hydrolysis of the coumarin leaving group (AMC) was followed by spectrofluorometry (Exp, =360 nm; EmX=460 nm) for 20 minutes. Percent of inhibition were calculated by fitting experimental values to standard mathematical model for dose response curve.

human cathepsin K = human cathepsin K (UniProt P43236); assay: Cathepsin K Assay (hrbCat K); format: biochemical; details: human cathepsin K 0.4 nM, Z-Leu-Arg-AMC 8 μM, pH 5.5, 15 min preincubation; read-out: hrbCat K IP
Procedure: Cathepsin K Assay (hrbCat K)
as §1, with “K (0.4” for “F (10”, “Z-Leu-Arg-AMC” for “Z-Phe-Arg-AMC”, “(Exλ=360” for “(Exp, =360”, “Emλ=460” for “EmX=460”, “30” for “20”

| SMILES | IC50 (human cathepsin F) [nM] | IC50 (human cathepsin K) [nM] |
| --- | --- | --- |
| N#CC1(NC(=O)[C@@H]2CCCC[C@H]2c2oc(-c3cnc(C(F)(F)F)nc3)nc2-c2ccc(N3CCS(=O)(=O)CC3)cc2)CC1 [Example 85, (1R,2R)-N-(1-cyanocyclopropyl)-2-(4-(4-(1,1-dioxidothiomorpholino)phenyl)-2-(2-(trifluoromethyl)pyrimidin-5-yl)oxazol-5-yl)cyclohexanecarboxamide] | 2520 | 1.57 |
| N#CCNC(=O)[C@@H]1CC(F)(F)CC[C@H]1c1oc(C(F)(F)C(F)(F)F)nc1-c1ccc(C(=O)N2CCOCC2)cc1 [Example 136, (1R,2R)-N-(cyanomethyl)-5,5-difluoro-2-(4-(4-(morpholine-4-carbonyl)phenyl)-2-(perfluoroethyl)oxazol-5-yl)cyclohexanecarboxamide] | 319 | 0.74 |
| CC(C)(C)c1nc(-c2ccc(N3CCS(=O)(=O)CC3)cc2)c([C@@H]2CCCC[C@H]2C(=O)NC2(C#N)CC2)o1 [Example 11, (1R,2R)-2-(2-(tert-butyl)-4-(4-(1,1-dioxidothiomorpholino)phenyl)oxazol-5-yl)-N-(1-cyanocyclopropyl) cyclohexanecarboxamide] | 681 | 0.69 |
| N#CC(NC(=O)[C@@H]1CC(F)(F)CC[C@H]1c1oc(C(F)(F)C(F)(F)F)nc1-c1ccc(C(=O)N2CCOCC2)cc1)C1CCOCC1 (single isomer, unassigned) [Example 144, (1R,2R)-N-((R or S)-cyano(tetrahydro-2H-pyran-4-yl)methyl)-5,5-difluoro-2-(4-(4-(morpholine-4-carbonyl)phenyl)-2-(perfluoroethyl)oxazol-5-yl)cyclohcxanccarboxamide] | ≥ 10000 | 1520 |
| CS(=O)(=O)N1CCN(C(=O)c2ccc(-c3nc(C(F)(F)C(F)(F)F)oc3[C@@H]3CCC(F)(F)C[C@H]3C(=O)NC3(C#N)CC3)cc2)CC1 [Example 140, (1R,2R)-N-(1-cyanocyclopropyl)-5,5-difluoro-2-(4-(4-(4-(methylsulfonyl)piperazine-1-carbonyl)phenyl)-2-(perfluoroethyl)oxazol-5-yl)cyclohexanecarboxamide] | 372 | 1.93 |
| N#CC1(NC(=O)[C@@H]2CCCC[C@H]2c2oc(-c3ccc(OC(F)F)nc3)nc2-c2ccc(N3CCS(=O)(=O)CC3)cc2)CC1 [Example 91, (1R,2R)-N-(1-cyanocyclopropyl)-2-(2-(6-(difluoromethoxy)pyridin-3-yl)-4-(4-(1,1-dioxidothiomorpholino)phenyl)oxazol-5-yl)cyclohexanecarboxamide] | 1670 | 1.3 |
| N#CC1(NC(=O)[C@@H]2CCCC[C@H]2c2oc(-c3cncc(C(F)(F)F)c3)nc2-c2ccc(N3CCS(=O)(=O)CC3)cc2)CC1 [Example 88, (1R,2R)-N-(1-cyanocyclopropyl)-2-(4-(4-(1,1-dioxidothiomorpholino)phenyl)-2-(5-(trifluoromethyl)pyridin-3-yl)oxazol-5-yl)cyclohexanecarboxamide] | 2380 | 2.21 |
| COC1CC(c2nc(-c3ccc(N4CCS(=O)(=O)CC4)cc3)c([C@@H]3CCCC[C@H]3C(=O)NC3(C#N)CC3)o2)C1 (mixture of isomers) [Example 117, (1R,2R)-N-(1-cyanocyclopropyl)-2-(4-(4-(1,1-dioxidothiomorpholino)phenyl)-2-((1R,3R and 1S,3S)-3-methoxycyclobutyl)oxazol-5-yl)cyclohexanecarboxamide] | 2240 | 1.46 |
| N#CC(CC(F)(F)F)NC(=O)[C@@H]1CCCC[C@H]1c1oc(-c2ccc(F)cc2)nc1-c1ccc(N2CCS(=O)(=O)CC2)cc1 (single isomer, unassigned) [Example 132, (1R,2R)-N-((S or R)-1-cyano-3,3,3-trifluoropropyl)-2-(4-(4-(1,1-dioxidothiomorpholino)phenyl)-2-(4-fluorophenyl)oxazol-5-yl)cyclohexanecarboxamide] | 670 | 1.77 |
| N#CC1(NC(=O)[C@@H]2CCCC[C@H]2c2oc(-c3ccc(F)cn3)nc2-c2ccc(N3CCS(=O)(=O)CC3)cc2)CC1 [Example 32, (1R,2R)-N-(1-cyanocyclopropyl)-2-(4 (4-(1,1-dioxidothiomorpholino)phenyl)-2-(5-fluoropyridin-2-yl)oxazol-5-yl)cyclohexanecarboxamide] | 2490 | 3.12 |
| CC(C)(C)c1nc(-c2ccc(N3CCS(=O)(=O)CC3)cc2)c([C@@H]2CCCC[C@H]2C(=O)NC2(C#N)CC2)s1 [Example 10, (1R,2R)-2-(2-(tert-butyl)-4-(4-(1,1-dioxidothiomorpholino)phenyl)thiazol-5-yl)-N-(1-cyanocyclopropyl)cyclohexanecarboxamide] | 1440 | 1.65 |

Second part, the compound after the results:

| IC50 (human cathepsin F) [nM] | IC50 (human cathepsin K) [nM] | SMILES |
| --- | --- | --- |
| 839 | 89.7 | N#CC1(NC(=O)[C@@H]2CCCC[C@H]2c2oc(-c3ccc(F)cc3)nc2-c2ccc(N3CCc4ccccc43)cc2)CC1 [Example 152, (1R,2R)-N-(1-cyanocyclopropyl)-2-(2-(4-fluorophenyl)-4-(4-(indolin-1-yl)phenyl)oxazol-5-yl)cyclohexanecarboxamide] |
| ≥ 10000 | 1080 | CC(C)C(C#N)NC(=O)[C@@H]1CCCC[C@H]1c1oc(-c2ccc(F)cc2)nc1-c1ccc(N2CCS(=O)(=O)CC2)cc1 (single isomer, unassigned) [Example 124, (1R,2R)-N-((R or S)-1-cyano-2-methylpropyl)-2-(4-(4-(1,1-dioxidothiomorpholino)phenyl)-2-(4-fluorophenyl)oxazol-5-yl)cyclohexanecarboxamide] |
| 767 | 0.85 | N#CC1(NC(=O)[C@@H]2CCCC[C@H]2c2oc(C3CC4CC4C3)nc2-c2ccc(N3CCS(=O)(=O)CC3)cc2)CC1 (mixture of isomers) [Example 118, (1R,2R)-2-(2-((1R,3R,5S and 1R,3S,5S)-bicyclo[3.1.0]hexan-3-yl)-4-(4-(1,1-dioxidothiomorpholino)phenyl)oxazol-5-yl)-N-(1-cyanocyclopropyl) cyclohexanecarboxamide] |
| 757 | 0.43 | N#CC1(NC(=O)[C@@H]2CCCC[C@H]2c2oc(-c3ccncc3F)nc2-c2ccc(N3CCS(=O)(=O)CC3)cc2)CC1 [Example 30, (1R,2R)-N-(1-cyanocyclopropyl)-2-(4-(4-(1,1-dioxidothiomorpholino)phenyl)-2-(3-fluoropyridin-4-yl)oxazol-5-yl)cyclohcxanecarboxamide] |
| 1840 | 1.35 | Cc1ncc(-c2nc(-c3ccc(N4CCS(=O)(=O)CC4)cc3)c([C@@H]3CCCC[C@H]3C(=O)NC3(C#N)CC3)o2)cn1 [Example 103, (1R,2R)-N-(1-cyanocyclopropyl)-2-(4-(4-(1,1-dioxidothiomorpholino)phenyl)-2-(2-methylpyrimidin-5-yl)oxazol-5-yl)cyclohexanecarboxamide] |
| 71 | 0.28 | N#CC1(NC(=O)[C@@H]2CC(F)(F)CC[C@H]2c2oc(-c3ccc(F)cc3)nc2-c2ccc(N3CCS(=O)(=O)CC3)cc2)CC1 [Example 20, (1R,2R)-N-(1-cyanocyclopropyl)-2-(4-(4-(1,1-dioxidothiomorpholino)phenyl)-2-(4-fluorophenyl)oxazol-5-yl)-5,5-difluorocyclohexane-carboxamide] |
